# Data taken from patent publication US20190055279A1, “NOVEL POLYPEPTIDES WITH IMPROVED PROTEOLYTIC STABILITY, AND METHODS OF PREPARING AND USING SAME” (TUFTS UNIVERSITY, priority 2015, published 2019).
# “And” between values parts separate entries of the source, which are not always exact repeats. Identical values can stand only once. “Also recorded” adds a separate entry of the source. Where a SMILES comes first, the peptide text is derived from it. Side-chain parts run from the residue outwards. [ ]: non-standard residue; d: D form. The star is where a group is joined. N(CH2CF3)His = O=C(O)[C@H](Cc1c[nH]cn1)NCC(F)(F)F; Palmitoyl = CCCCCCCCCCCCCCCC(=O)*; βAla = NCCC(=O)O
# Assays:
# [1] = target: T1, DPP4 (Homo sapiens, UniProt P27487); experiment: DPP4 degradation of GLP-2 peptides: incubation with recombinant DPP4, then GLP-2R reporter assay
# Method: Peptides were incubated with vehicle or recombinant DPP4. Serial dilutions of GLP2-1 and GLP2-4 were then applied to HEK293 cells, which had been transfected with cDNA encoding human GLP-2R and a cAMP-responsive reporter gene.
# Peptides were incubated with recombinant DPP4. Serial dilutions of GLP-2 and GLP2-4 were then applied to HEK293 cells, which had been transfected with cDNA encoding human GLP-2R and a cAMP-responsive reporter gene. […] N=4, mean+SEM.
# DPP4 resistance (FIG. 13): Lipidated peptides are compared with the prototype, F-GLP2-palm. After an overnight incubation (16 hrs) in the presence vs. the absence of DPP4, receptor mediated function is assessed as shown elsewhere herein. As a DPP4 susceptible control, parallel experiments are done using GLP-2. […] Following overnight preincubation, serial dilutions of ligands were prepared and added to GLP-2R expressing cells for 4 hours. A luciferase reporter gene assay was used to monitor Gαs coupled second messenger signaling.
# [2] = tested on: C57BL/6J mice; experiment: Intestinal mucosal growth after five daily s.c. injections in C57BL/6J mice; format: in vivo; conditions: s.c. once daily for five days; for intestinal mucosal growth / trophic effect: 25 μg/mouse for villus height; for intestinal weight: sacrificed on day 6, N=6 animals/group
# Method: C57BL/6J mice were injected s.c. once daily for five days with either vehicle, GLP2-L17K(l1)-4, or Gattex at indicated doses. Animals were sacrificed on day 6, followed by analysis of intestinal tissue.
# C57BL/6J mice were injected s.c. once daily for five days with either vehicle, GLP2-L17K [L1]-4 or Gattex at indicated doses. Animals were sacrificed on day 6, followed by measurement of intestinal weight. […] C57BL/6J mice were injected s.c. once daily for five days with either 25 μg of GLP2-L17K [L1]-4 or vehicle. Animals were sacrificed on day 6.
# [3] = Plasma GLP-2R agonist activity 24 h after s.c. injection in mice (luciferase reporter gene assay); format: in vivo; conditions: 1.25 μg s.c., compared with Gattex
# Method: Clearance of this compound was compared to that of Gattex, an established GLP-2 based drug, Compounds (1.25 μg) were injected subcutaneously (s.c.) in mice. Plasma was collected after 24 h and analyzed by luciferase reporter gene assay for GLP-2R agonist activity.
# Compounds (1.25 μg) were injected s.c. in mice. Plasma was collected after 24 h and analyzed by luciferase reporter gene assay for GLP-2R agonist activity.
# [4] = target: DPP2 (Homo sapiens, UniProt Q9UHL4); experiment: Stability assay with or without DPP2, read out by receptor bioassay (FIG. 9A); conditions: incubated with or without DPP2
# [5] = target: T2, FAP (Homo sapiens, UniProt Q12884); experiment: Stability assay with or without FAP, read out by receptor bioassay (FIG. 9A, FIG. 18); conditions: incubated with or without FAP
# T2 sequence (Q12884 1-760): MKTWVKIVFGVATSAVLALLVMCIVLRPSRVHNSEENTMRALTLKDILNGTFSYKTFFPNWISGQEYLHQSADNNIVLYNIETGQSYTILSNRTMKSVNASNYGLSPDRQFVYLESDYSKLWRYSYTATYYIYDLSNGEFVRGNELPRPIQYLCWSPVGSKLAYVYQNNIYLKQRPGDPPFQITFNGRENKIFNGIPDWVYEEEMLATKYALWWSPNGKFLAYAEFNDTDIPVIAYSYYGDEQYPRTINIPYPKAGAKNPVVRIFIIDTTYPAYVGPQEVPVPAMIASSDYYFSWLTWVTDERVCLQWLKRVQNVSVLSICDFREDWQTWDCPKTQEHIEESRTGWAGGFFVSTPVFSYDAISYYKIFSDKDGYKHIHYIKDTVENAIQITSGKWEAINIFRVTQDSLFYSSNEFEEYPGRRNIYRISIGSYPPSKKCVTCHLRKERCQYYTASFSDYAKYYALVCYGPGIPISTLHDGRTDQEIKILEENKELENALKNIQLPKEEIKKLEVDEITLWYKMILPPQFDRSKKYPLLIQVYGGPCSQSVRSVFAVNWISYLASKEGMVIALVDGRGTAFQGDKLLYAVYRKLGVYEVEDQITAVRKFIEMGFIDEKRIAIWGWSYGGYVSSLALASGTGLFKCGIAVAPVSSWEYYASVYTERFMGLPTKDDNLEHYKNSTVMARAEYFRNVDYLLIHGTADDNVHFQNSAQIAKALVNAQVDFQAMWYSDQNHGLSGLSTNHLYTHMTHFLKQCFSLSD
# [6] = cited from earlier work
# [7] = target: T1, DPP4; experiment: Sensitivity to DPP4: overnight incubation with recombinant DPP4 or vehicle, then receptor agonist bioassay
# Method: Plotting concentration versus the luciferase activity yielded quantitative parameters for combined binding (potency) and signaling (efficacy) in a single step. […] DPP4 treated peptides: 10 μl of 0.26 mM peptide were incubated with 2 μL DPP4 in buffer ±DMSO for 18 hrs. Control peptides: 10 μl of 0.26 mM peptide was added to buffer ±DMSO. The final DMSO concentration was the same for all peptides and all peptides were diluted to 0.26 mM concentrations for the DPP4 assay.
# Compounds are incubated overnight at 37° C. in the presence of recombinant DPP4 or vehicle (TRIS buffer). The samples are then assessed in GLP-1R agonist assays.
# Compounds were incubated overnight at 37° C. in the presence of recombinant DPP4 or vehicle (TRIS buffer, pH 8.0). The samples were then assessed in GLP1R agonist assays as described elsewhere herein.
# T1 sequence (P27487 whole entry, species assumed): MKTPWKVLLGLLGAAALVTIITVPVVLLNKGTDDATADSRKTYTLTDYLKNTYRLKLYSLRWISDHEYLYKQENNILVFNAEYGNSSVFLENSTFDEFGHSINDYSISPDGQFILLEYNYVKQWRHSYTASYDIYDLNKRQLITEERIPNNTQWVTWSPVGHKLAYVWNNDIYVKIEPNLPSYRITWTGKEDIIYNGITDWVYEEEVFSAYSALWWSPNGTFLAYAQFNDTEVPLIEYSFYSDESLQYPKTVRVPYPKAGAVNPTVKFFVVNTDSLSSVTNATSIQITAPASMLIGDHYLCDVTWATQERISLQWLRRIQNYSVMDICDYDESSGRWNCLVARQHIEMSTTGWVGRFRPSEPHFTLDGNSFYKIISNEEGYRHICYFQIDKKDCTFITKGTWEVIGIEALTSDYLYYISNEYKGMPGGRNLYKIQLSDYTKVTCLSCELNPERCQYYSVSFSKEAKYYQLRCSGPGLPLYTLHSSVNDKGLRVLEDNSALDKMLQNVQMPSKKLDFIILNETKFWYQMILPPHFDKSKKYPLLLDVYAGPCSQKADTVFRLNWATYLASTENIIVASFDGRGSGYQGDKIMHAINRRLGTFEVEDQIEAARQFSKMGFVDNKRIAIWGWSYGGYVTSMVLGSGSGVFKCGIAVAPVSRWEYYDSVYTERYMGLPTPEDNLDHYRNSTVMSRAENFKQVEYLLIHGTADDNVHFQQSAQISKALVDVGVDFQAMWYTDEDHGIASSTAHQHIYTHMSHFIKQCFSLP
compound,measurement,setting,value
CC[C@H](C)[C@H](NC(=O)[C@H](Cc1ccccc1)NC(=O)[C@H](CC(=O)O)NC(=O)[C@H](CCCNC(=N)N)NC(=O)[C@H](C)NC(=O)[C@H](C)NC(=O)[C@H](CC(C)C)NC(=O)[C@H](CC(N)=O)NC(=O)[C@H](CC(=O)O)NC(=O)[C@H](CC(C)C)NC(=O)[C@@H](NC(=O)[C@@H](NC(=O)[C@H](CC(N)=O)NC(=O)[C@H](CCSC)NC(=O)[C@H](CCC(=O)O)NC(=O)[C@H](CC(=O)O)NC(=O)[C@H](CO)NC(=O)[C@H](Cc1ccccc1)NC(=O)[C@H](CO)NC(=O)CNC(=O)[C@H](CC(=O)O)NC(=O)[C@H](C)NC(=O)[C@H](Cc1c[nH]cn1)NCC(F)(F)F)[C@@H](C)O)[C@@H](C)CC)C(=O)N[C@@H](CC(N)=O)C(=O)N[C@@H](Cc1c[nH]c2ccccc12)C(=O)N[C@@H](CC(C)C)C(=O)N[C@H](C(=O)N[C@@H](CCC(N)=O)C(=O)N[C@H](C(=O)N[C@@H](CCCCN)C(=O)N[C@H](C(=O)N[C@H](C(=O)N[C@@H](CC(=O)O)C(=O)O)[C@@H](C)O)[C@@H](C)CC)[C@@H](C)O)[C@@H](C)CC [GLP2-4],DPP4 degradation / resistance (in words),[1]; GLP-2R readout,no potency loss; also recorded: completely resistant to degradation
same,DPP4 degradation / resistance (in words),"[1]; GLP-2R readout, listed as GLP-2-4",no potency loss
CCCCCCCCCCCCCCCC(=O)NCCC(=O)NCCCC[C@H](NC(=O)[C@H](CC(N)=O)NC(=O)[C@H](CC(=O)O)NC(=O)[C@H](CC(C)C)NC(=O)[C@@H](NC(=O)[C@@H](NC(=O)[C@H](CC(N)=O)NC(=O)[C@H](CCSC)NC(=O)[C@H](CCC(=O)O)NC(=O)[C@H](CC(=O)O)NC(=O)[C@H](CO)NC(=O)[C@H](Cc1ccccc1)NC(=O)[C@H](CO)NC(=O)CNC(=O)[C@H](CC(=O)O)NC(=O)[C@H](C)NC(=O)[C@H](Cc1c[nH]cn1)NCC(F)(F)F)[C@@H](C)O)[C@@H](C)CC)C(=O)N[C@@H](C)C(=O)N[C@@H](C)C(=O)N[C@@H](CCCNC(=N)N)C(=O)N[C@@H](CC(=O)O)C(=O)N[C@@H](Cc1ccccc1)C(=O)N[C@H](C(=O)N[C@@H](CC(N)=O)C(=O)N[C@@H](Cc1c[nH]c2ccccc12)C(=O)N[C@@H](CC(C)C)C(=O)N[C@H](C(=O)N[C@@H](CCC(N)=O)C(=O)N[C@H](C(=O)N[C@@H](CCCCN)C(=O)N[C@H](C(=O)N[C@H](C(=O)N[C@@H](CC(=O)O)C(=O)O)[C@@H](C)O)[C@@H](C)CC)[C@@H](C)O)[C@@H](C)CC)[C@@H](C)CC [GLP2-L17K(l1)-4] (H-[N(CH2CF3)His]ADGSFSDEMNTILDNK([βAla-Palmitoyl])AARDFINWLIQTKITD-OH; N-terminus and C-terminus assumed),intestinal mucosal growth / trophic effect,[2],induces intestinal mucosal growth
same,intestinal mucosal growth / trophic effect,[2]; listed as GLP2-L17K [L1]-4,trophic effect on the intestinal mucosa
same,intestinal weight,[2],enhances intestinal weight
same,intestinal weight,[2]; listed as GLP2-L17K [L1]-4,increased intestinal weight in a dose dependent manner
same,DPP4 degradation / resistance (in words),[1]; GLP-2R readout,refractory to DPP4 degradation
same,DPP4 degradation / resistance (in words),"[1]; GLP-2R readout, listed as F-GLP2-palm",protease (DPP4) resistant
same,bioactivity in plasma 24 h after injection,[3],extended bioactivity in vivo
same,bioactivity in plasma 24 h after injection,[3]; listed as GLP2-L17K [L1]-4,remains at high levels in the circulation
"CC[C@H](C)[C@H](NC(=O)[C@H](Cc1ccccc1)NC(=O)[C@H](CCC(=O)O)NC(=O)[C@H](CCCCN)NC(=O)[C@H](C)NC(=O)[C@H](C)NC(=O)[C@H](CCC(N)=O)NC(=O)CNC(=O)[C@H](CCC(=O)O)NC(=O)[C@H](CC(C)C)NC(=O)[C@H](Cc1ccc(O)cc1)NC(=O)[C@H](CO)NC(=O)[C@H](CO)NC(=O)[C@@H](NC(=O)[C@H](CC(=O)O)NC(=O)[C@H](CO)NC(=O)[C@@H](NC(=O)[C@H](Cc1ccccc1)NC(=O)[C@@H](NC(=O)CNC(=O)[C@H](CCC(=O)O)NC(=O)[C@H](C)NC(=O)[C@@H](N)Cc1c[nH]cn1)[C@@H](C)O)[C@@H](C)O)C(C)C)C(=O)N[C@@H](C)C(=O)N[C@@H](Cc1c[nH]c2ccccc12)C(=O)N[C@@H](CC(C)C)C(=O)N[C@H](C(=O)N[C@@H](CCCCN)C(=O)NCC(=O)N[C@@H](CCCNC(=N)N)C(N)=O)C(C)C [GLP-1, glucagon-like peptide-1, reference compound]",stability to DPP2 (in words),[4],major potency losses
same,stability to FAP (in words),[5],major potency losses
"CC[C@H](C)[C@H](NC(=O)[C@H](Cc1ccccc1)NC(=O)[C@H](CC(=O)O)NC(=O)[C@H](CCCN=C(N)N)NC(=O)[C@H](C)NC(=O)[C@H](C)NC(=O)[C@H](CC(C)C)NC(=O)[C@H](CC(N)=O)NC(=O)[C@H](CC(=O)O)NC(=O)[C@H](CC(C)C)NC(=O)[C@@H](NC(=O)[C@@H](NC(=O)[C@H](CC(N)=O)NC(=O)[C@H](CCSC)NC(=O)[C@H](CCC(=O)O)NC(=O)[C@H](CC(=O)O)NC(=O)[C@H](CO)NC(=O)[C@H](Cc1ccccc1)NC(=O)[C@H](CO)NC(=O)CNC(=O)[C@H](CC(=O)O)NC(=O)[C@H](C)NC(=O)[C@@H](N)Cc1cnc[nH]1)[C@@H](C)O)[C@@H](C)CC)C(=O)N[C@@H](CC(N)=O)C(=O)N[C@@H](Cc1c[nH]c2ccccc12)C(=O)N[C@@H](CC(C)C)C(=O)N[C@H](C(=O)N[C@@H](CCC(N)=O)C(=O)N[C@H](C(=O)N[C@@H](CCCCN)C(=O)N[C@H](C(=O)N[C@H](C(=O)N[C@@H](CC(=O)O)C(=O)O)[C@@H](C)O)[C@@H](C)CC)[C@@H](C)O)[C@@H](C)CC [GLP-2, glucagon-like peptide-2, reference compound]",DPP4 degradation / resistance (in words),[1]; GLP-2R readout,degraded by DPP4
same,loss in potency induced by DPP4,"[1]; GLP-2R readout, N=4",> 40 fold
same,peptide degraded by DPP4,[1]; inferred from potency loss,> 97% and ~97%
same,half-life in vivo,[6],7 min
CCCCCCCCCCCCCCCC(=O)N[C@@H](CCC(=O)NCCCC[C@H](NC(=O)[C@H](C)NC(=O)[C@H](C)NC(=O)[C@H](CCC(N)=O)NC(=O)CNC(=O)[C@H](CCC(=O)O)NC(=O)[C@H](CC(C)C)NC(=O)[C@H](Cc1ccc(O)cc1)NC(=O)[C@H](CO)NC(=O)[C@H](CO)NC(=O)[C@@H](NC(=O)[C@H](CC(=O)O)NC(=O)[C@H](CO)NC(=O)[C@@H](NC(=O)[C@H](Cc1ccccc1)NC(=O)[C@@H](NC(=O)CNC(=O)[C@H](CCC(=O)O)NC(=O)[C@H](C)NC(=O)[C@@H](N)Cc1cnc[nH]1)[C@@H](C)O)[C@@H](C)O)C(C)C)C(=O)N[C@@H](CCC(=O)O)C(=O)N[C@@H](Cc1ccccc1)C(=O)N[C@H](C(=O)N[C@@H](C)C(=O)N[C@@H](Cc1c[nH]c2ccccc12)C(=O)N[C@@H](CC(C)C)C(=O)N[C@H](C(=O)N[C@@H](CCCNC(=N)N)C(=O)NCC(=O)N[C@@H](CCCNC(=N)N)C(=O)NCC(=O)O)C(C)C)[C@@H](C)CC)C(=O)O [liraglutide],potency loss after incubation with DPP4,"[7]; overnight incubation with the enzyme, GLP-1R readout",> 50 fold
Glucagon,DPP4 degradation / resistance (in words),"[7]; overnight incubation with or without DPP4, readout at cognate receptor",degraded by DPP4
